Experimental findings from ChEMBL document CHEMBL3797148, “Antiprotozoal activity of dehydroabietic acid derivatives against Leishmania donovani and Trypanosoma cruzi” (Medchemcomm, 2016) are described below.

The subject of the assay is Leishmania donovani. Briefly: Antileishmanial activity against axenic amastigote stage of Leishmania donovani MHOM/SD/1962/1S-Cl2d assessed as inhibition of parasite growth at 1 uM after 24 hrs by Alamar blue viability assay. Type of assay: functional. The following applies: read-out: GI. On the technique in general: The colour change of resazurin is a common sign of viable cells or microbes.

Molecules are shown by their SMILES.

As for `C[C@@H]1[C@H](O)[C@@H](C)/C=C/C=C/C=C/C=C/C=C/C=C/C=C/[C@H](O[C@@H]2O[C@H](C)[C@@H](O)[C@H](N)[C@@H]2O)C[C@@H]2O[C@](O)(C[C@@H](O)C[C@@H](O)[C@H](O)CC[C@@H](O)C[C@@H](O)CC(=O)O[C@H]1C)C[C@H](O)[C@H]2C(=O)O` [AMPHOTERICIN B], the inhibition of growth at 1 µM is more than 90%.
